# Test results as given in ChEMBL document CHEMBL4177750, “Imidazopyrazinones (IPYs): Non-Quinolone Bacterial Topoisomerase Inhibitors Showing Partial Cross-Resistance with Quinolones” (J Med Chem, 2018).
# Active and inactive are the calls of the source. The calls are words filed in the database; no cut-off is given here.
# Tests used:
# Mus musculus [1] = test: Time during which free kidney concentration exceeds in vitro MIC for Escherichia coli ATCC 35218 in Swiss mouse at 30 mg/kg, iv administered as single bolus dose by LC-MS/MS method; type: ADME, organism-based; conditions: in vivo
# [2] = Drug metabolism in rat liver microsomes at 5 uM after 20 mins in presence of NADPH; type: ADME, microsome; conditions: read-out: Drug metabolism
# Pseudomonas aeruginosa [3] = test: Antibacterial activity against Pseudomonas aeruginosa PAO1 after 20 to 22 hrs; type: functional
# Pseudomonas aeruginosa [4] = test: Antibacterial activity against Pseudomonas aeruginosa PAO750 harboring mexAB-oprM/mexCD-oprJ/mexEF-oprN/mexXY/opmH/mexJK/pscC deletion mutant after 20 to 22 hrs; type: functional
# Cytochrome P450 3A4 [5] = target: T1, Cytochrome P450 3A4 (Homo sapiens, UniProt P08684); test: Inhibition of CYP3A4-mediated midazolam metabolism in human liver microsomes
# T1 sequence (P08684 whole entry): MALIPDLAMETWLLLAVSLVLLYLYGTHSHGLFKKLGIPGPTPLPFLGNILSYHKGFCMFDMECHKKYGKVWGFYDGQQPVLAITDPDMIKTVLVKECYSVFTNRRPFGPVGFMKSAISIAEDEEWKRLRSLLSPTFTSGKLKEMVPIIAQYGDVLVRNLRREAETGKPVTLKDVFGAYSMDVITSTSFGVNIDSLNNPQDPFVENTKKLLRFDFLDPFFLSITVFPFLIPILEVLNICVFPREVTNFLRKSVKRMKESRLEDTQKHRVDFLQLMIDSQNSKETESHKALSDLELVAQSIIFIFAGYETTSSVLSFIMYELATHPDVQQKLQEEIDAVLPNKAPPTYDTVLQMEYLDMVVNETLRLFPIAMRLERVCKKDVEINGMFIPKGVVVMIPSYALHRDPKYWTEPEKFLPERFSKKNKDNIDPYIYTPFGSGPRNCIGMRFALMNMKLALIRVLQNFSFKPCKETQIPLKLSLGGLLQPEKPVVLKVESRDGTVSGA
# [6] = Metabolic stability in mouse plasma at 1 uM after 4 hrs; type: ADME, cell-free; conditions: read-out: Stability
# Escherichia coli [7] = test: Antibacterial activity against hyperpermeable Escherichia coli D22 harboring LpxC mutant after 20 to 22 hrs
# Mus musculus [8] = test: Toxicity in Swiss mouse at 30 mg/kg, iv bid administered as bolus dose every 2 hrs measured daily for 5 days; type: organism-based; conditions: in vivo, 120 h
# [9] = Drug uptake in Swiss mouse kidney at 30 mg/kg, iv administered as single bolus dose by LC-MS/MS method; type: ADME, organism-based; conditions: in vivo
# Mus musculus [10] = test: Time during which free liver concentration exceeds in vitro MIC for Escherichia coli ATCC 35218 in Swiss mouse at 30 mg/kg, iv administered as single bolus dose by LC-MS/MS method; type: ADME, organism-based; conditions: in vivo
# Escherichia coli [11] = test: Antibacterial activity against tolC-deficient Escherichia coli K-12 MG1655 after 20 to 22 hrs; type: functional; conditions: K-12 substr. MG1655
# [12] = Half life in Swiss mouse plasma at 30 mg/kg, iv administered as single bolus dose by LC-MS/MS method; type: ADME, organism-based
# Escherichia coli [13] = test: Antibacterial activity against Escherichia coli ATCC 35218 in Swiss mouse septicemia model assessed as mouse survival at 30 mg/kg, iv bid administered at 1 and 3 hrs post infection measured at 96 hrs relative to vehicle-treated control; type: functional; conditions: ATCC 35218, iv
# [14] = Protein binding in mouse plasma by equilibrium dialysis method; type: ADME, cell-free; conditions: read-out: PPB (converted)
# Staphylococcus aureus [15] = test: Antibacterial activity against methicillin-resistant Staphylococcus aureus ATCC 33592 after 20 to 22 hrs in presence of 50% calf fetal serum; type: functional, organism-based
# [16] = target: Voltage-gated inwardly rectifying potassium channel KCNH2 (Homo sapiens, UniProt Q12809); test: Inhibition of human ERG transfected in CHO cells by patch clamp method
# Chain of Voltage-gated inwardly rectifying potassium channel KCNH2 (Q12809 whole entry): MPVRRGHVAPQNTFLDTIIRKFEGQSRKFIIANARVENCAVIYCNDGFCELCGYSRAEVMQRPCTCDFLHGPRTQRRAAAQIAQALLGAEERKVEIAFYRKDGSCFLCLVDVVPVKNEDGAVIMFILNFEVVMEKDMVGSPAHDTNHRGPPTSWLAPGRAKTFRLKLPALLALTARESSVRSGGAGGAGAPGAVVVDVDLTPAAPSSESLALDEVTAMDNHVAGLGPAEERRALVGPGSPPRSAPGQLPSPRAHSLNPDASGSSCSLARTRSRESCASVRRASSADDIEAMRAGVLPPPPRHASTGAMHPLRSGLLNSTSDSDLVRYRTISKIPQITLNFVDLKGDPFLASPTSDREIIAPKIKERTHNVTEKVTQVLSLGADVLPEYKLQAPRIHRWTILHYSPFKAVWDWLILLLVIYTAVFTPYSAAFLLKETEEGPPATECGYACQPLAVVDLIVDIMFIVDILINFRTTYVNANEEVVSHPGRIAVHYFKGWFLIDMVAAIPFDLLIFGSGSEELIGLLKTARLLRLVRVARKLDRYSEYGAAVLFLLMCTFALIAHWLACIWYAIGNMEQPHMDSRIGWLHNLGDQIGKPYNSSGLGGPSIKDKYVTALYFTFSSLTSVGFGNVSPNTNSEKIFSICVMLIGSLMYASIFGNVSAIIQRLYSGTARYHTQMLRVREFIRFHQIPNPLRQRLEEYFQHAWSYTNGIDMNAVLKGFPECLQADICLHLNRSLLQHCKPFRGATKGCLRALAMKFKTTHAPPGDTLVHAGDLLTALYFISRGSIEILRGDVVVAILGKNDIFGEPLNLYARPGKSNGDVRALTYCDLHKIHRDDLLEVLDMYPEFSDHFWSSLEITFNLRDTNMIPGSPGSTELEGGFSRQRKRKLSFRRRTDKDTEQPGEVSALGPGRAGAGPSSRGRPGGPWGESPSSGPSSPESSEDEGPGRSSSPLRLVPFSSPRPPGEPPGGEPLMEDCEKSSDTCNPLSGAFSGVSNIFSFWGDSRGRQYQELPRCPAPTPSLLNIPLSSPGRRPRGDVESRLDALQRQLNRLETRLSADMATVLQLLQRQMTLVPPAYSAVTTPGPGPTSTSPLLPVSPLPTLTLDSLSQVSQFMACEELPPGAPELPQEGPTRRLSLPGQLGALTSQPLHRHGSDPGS
# Staphylococcus aureus [17] = test: Antibacterial activity against methicillin-resistant Staphylococcus aureus ATCC 33592 after 20 to 22 hrs; type: functional
# Klebsiella pneumoniae [18] = test: Antibacterial activity against Klebsiella pneumoniae 1161486 after 20 to 22 hrs; type: functional
# L5178Y [19] = test: Genotoxicity in mouse L5178Y cells after 3 hrs in presence of S9 fraction by micronucleus test; type: toxicity, cell-based; conditions: s9, 3 h
# [20] = Thermodynamic aqueous solubility of the compound at pH 7.4; conditions: aqueous solution
# Cytochrome P450 3A4 [21] = target: T1, Cytochrome P450 3A4; test: Inhibition of CYP3A4-mediated testosterone metabolism in human liver microsomes
# Escherichia coli [22] = test: Antibacterial activity against Escherichia coli ATCC 35218 in Swiss mouse septicemia model assessed as decrease in bacterial burden in blood at 30 mg/kg, iv bid administered at 1 and 3 hrs post infection measured at 4 hrs relative to vehicle-treated control; type: functional
# Mus musculus [23] = test: Time during which free lung concentration exceeds in vitro MIC for Escherichia coli ATCC 35218 in Swiss mouse at 30 mg/kg, iv administered as single bolus dose by LC-MS/MS method; type: ADME, organism-based; conditions: in vivo
# Escherichia coli [24] = test: Antibacterial activity against Escherichia coli ATCC 35218 in Swiss mouse septicemia model assessed as decrease in bacterial burden in blood at 15 mg/kg, iv bid administered at 1 and 3 hrs post infection measured at 4 hrs relative to vehicle-treated control; type: functional
# L5178Y [25] = test: Genotoxicity in mouse L5178Y cells after 23 hrs in absence of S9 fraction by micronucleus test; type: toxicity, cell-based
# Klebsiella pneumoniae [26] = test: Antibacterial activity against tolC-deficient Klebsiella pneumoniae 1161486a after 20 to 22 hrs; type: functional
# Acinetobacter baumannii [27] = test: Antibacterial activity against Acinetobacter baumannii BM4652 harboring adeABC/adeIJK deletion mutant after 20 to 22 hrs; type: functional
# Escherichia coli [28] = test: Antibacterial activity against Escherichia coli K-12 MG1655 after 20 to 22 hrs; conditions: K-12 substr. MG1655
# Acinetobacter baumannii [29] = test: Antibacterial activity against Acinetobacter baumannii BM4454 after 20 to 22 hrs; type: functional
# [30] = target: T2, Muscarinic acetylcholine receptor M1 (Homo sapiens) (UniProt P11229); test: Inhibition of M1 receptor (unknown origin) at 10 uM relative to control
# T2 sequence (whole entry): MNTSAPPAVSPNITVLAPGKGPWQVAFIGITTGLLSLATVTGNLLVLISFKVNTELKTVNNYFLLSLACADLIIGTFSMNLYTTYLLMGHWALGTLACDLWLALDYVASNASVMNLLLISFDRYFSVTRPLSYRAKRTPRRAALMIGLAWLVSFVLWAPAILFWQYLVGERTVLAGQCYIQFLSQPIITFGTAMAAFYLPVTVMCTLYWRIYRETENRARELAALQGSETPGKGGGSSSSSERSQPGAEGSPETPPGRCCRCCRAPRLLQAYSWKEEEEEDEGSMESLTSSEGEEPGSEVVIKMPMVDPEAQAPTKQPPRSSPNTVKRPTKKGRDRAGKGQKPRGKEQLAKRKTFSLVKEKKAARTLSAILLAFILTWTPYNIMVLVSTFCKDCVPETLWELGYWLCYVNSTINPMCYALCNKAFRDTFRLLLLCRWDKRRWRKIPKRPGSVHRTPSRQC
# [31] = Drug uptake in Swiss mouse liver at 30 mg/kg, iv administered as single bolus dose by LC-MS/MS method; type: ADME, organism-based; conditions: in vivo
# [32] = Cytotoxicity against human HepG2 cells assessed as decrease in cell viability after 40 hrs by Celltiter Glo assay
# [33] = Metabolic stability in rat plasma at 1 uM after 4 hrs; type: ADME, cell-free; conditions: read-out: Stability
# [34] = Unbound concentration in Swiss mouse plasma at 30 mg/kg, iv administered as single bolus dose measured at 5 mins by LC-MS/MS method; type: ADME, organism-based; conditions: in vivo
# Staphylococcus aureus [35] = test: Antibacterial activity against methicillin-resistant Staphylococcus aureus ATCC 33592 after 20 to 22 hrs in presence of 50% mouse serum; type: functional, organism-based
# [36] = target: Muscarinic acetylcholine receptor M3 (Homo sapiens) (UniProt P20309); test: Inhibition of M3 receptor (unknown origin) at 10 uM relative to control
# Chain of Muscarinic acetylcholine receptor M3 (Homo sapiens) (P20309 whole entry, looked up): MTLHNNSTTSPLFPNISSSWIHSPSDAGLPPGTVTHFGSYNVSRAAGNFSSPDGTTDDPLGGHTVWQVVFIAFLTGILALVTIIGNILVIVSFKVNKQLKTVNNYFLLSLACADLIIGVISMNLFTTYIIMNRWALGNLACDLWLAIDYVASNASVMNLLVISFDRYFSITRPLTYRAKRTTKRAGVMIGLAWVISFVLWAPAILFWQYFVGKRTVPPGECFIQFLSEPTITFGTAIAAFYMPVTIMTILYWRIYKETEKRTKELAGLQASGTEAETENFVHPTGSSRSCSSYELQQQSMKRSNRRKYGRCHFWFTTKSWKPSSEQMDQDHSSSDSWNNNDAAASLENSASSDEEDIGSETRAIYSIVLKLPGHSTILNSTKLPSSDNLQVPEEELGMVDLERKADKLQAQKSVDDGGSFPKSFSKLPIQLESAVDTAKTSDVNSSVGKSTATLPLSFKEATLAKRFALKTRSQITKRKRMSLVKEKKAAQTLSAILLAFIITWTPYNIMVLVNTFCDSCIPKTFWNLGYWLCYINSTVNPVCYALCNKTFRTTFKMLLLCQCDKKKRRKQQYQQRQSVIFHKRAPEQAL
# [37] = Drug uptake in Swiss mouse lung at 30 mg/kg, iv administered as single bolus dose by LC-MS/MS method; type: ADME, organism-based; conditions: in vivo
# [38] = Drug metabolism in mouse liver microsomes at 5 uM after 20 mins in presence of NADPH; type: ADME, microsome; conditions: read-out: Drug metabolism
# [39] = Apparent permeability across human Caco2 cells; conditions: Caco-2
# [40] = AUC (0 to last) in Swiss mouse plasma at 30 mg/kg, iv administered as single bolus dose by LC-MS/MS method; type: ADME, organism-based; design: dose 30 mg/kg, route intravenous, time 0 - last
# Escherichia coli [41] = test: Antibacterial activity against ESBL producing Escherichia coli ATCC 35218 after 20 to 22 hrs; type: functional
# Escherichia coli [42] = test: Antibacterial activity against Escherichia coli ATCC 35218 in Swiss mouse septicemia model assessed as mouse survival at 15 mg/kg, iv bid administered at 1 and 3 hrs post infection measured at 96 hrs relative to vehicle-treated control; type: functional; conditions: ATCC 35218, iv
# [43] = Drug metabolism in human liver microsomes at 5 uM after 20 mins in presence of NADPH; type: ADME, microsome; conditions: read-out: Drug metabolism
smiles,measurement,setting,value
N[C@H]1CCN(c2cc3c(cc2F)n2ncnc2c(=O)n3C2CC2)C1,Time,Mus musculus [1],2 h
same,"metabolised at 20 min, 5 µM",[2],8%
same,MIC,Pseudomonas aeruginosa [3],> 64 µg/mL
same,MIC,Pseudomonas aeruginosa [4],1 µg/mL
same,IC50,Cytochrome P450 3A4 [5],> 30 µM
same,"remaining at 4 h, 1 µM",[6],80 to 120%
same,MIC,Escherichia coli [7],1 µg/mL
same,Activity,Mus musculus [8],Non-Toxic
same,Drug uptake,[9],Active
same,Time,Mus musculus [10],2 h
same,MIC,Escherichia coli [11],< 0.125 µg/mL
same,half-life,[12],1 h
same,survival at 30 mg/kg,Escherichia coli [13],30%
same,fraction unbound,[14],0.38
same,Activity,Staphylococcus aureus [15],Active
same,IC50,[16],> 30 µM
same,MIC,Staphylococcus aureus [17],4 µg/mL
same,MIC,Klebsiella pneumoniae [18],32 µg/mL
same,Activity,L5178Y [19],Toxic
same,solubility thermodynamic,[20],926 µg/mL
same,IC50,Cytochrome P450 3A4 [21],> 30 µM
same,Activity,Escherichia coli [22],3.2 deltalog10CFU/ml
same,Time,Mus musculus [23],2 h
same,Activity,Escherichia coli [24],1.6 deltalog10CFU/ml
same,Activity,L5178Y [25],Toxic
same,MIC,Klebsiella pneumoniae [26],0.5 µg/mL
same,MIC,Acinetobacter baumannii [27],4 µg/mL
same,MIC,Escherichia coli [28],4 µg/mL
same,MIC,Acinetobacter baumannii [29],> 64 µg/mL
same,inhibition,[30],50 to 60%
same,Drug uptake,[31],Active
same,CC50 at 40 h,[32],> 30 µM
same,"remaining at 4 h, 1 µM",[33],80 to 120%
same,Cp(f),[34],2500 ng/mL
same,Activity,Staphylococcus aureus [35],Active
same,inhibition,[36],50 to 60%
same,Drug uptake,[37],Active
same,"metabolised at 20 min, 5 µM",[38],8%
same,Papp,[39],3.2 ×10⁻⁶ cm/s
same,AUC(0-t),[40],7200 ng·h/mL
same,MIC,Escherichia coli [41],2 µg/mL
same,survival at 15 mg/kg,Escherichia coli [42],0%
same,"metabolised at 20 min, 5 µM",[43],0%
